Where a SMILES comes first, the peptide text is derived from it. [ ]: non-standard residue; d: D form. The star is where a group is joined. NHCH2CH2OH = OCCN*; For = O=C*

Results on twelve compounds are retold here after paper PMC7531004, “Discovery of gramicidin A analogues with altered activities by multidimensional screening of a one-bead-one-compound library” (Nature Communications, 2020).

The conditions of data set [1]: cell viability/%. The method in brief: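 First, library peptide stocks are diluted 250-fold in RPMI1640 with 10% heat-inactivated FBS. Next, they are mixed with P388 cells to give 1 × 10^4 cells/mL and incubated 92 h at 37 °C, 5% CO2. Finally, viability (%) is scored by WST-1 absorbance at 415 nm.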
Data set [2] deals with Streptococcus pyogenes SSI-9. Briefly: Antibacterial activity assay of bead-derived peptides (three concentrations). The format is cell-based. The arrangement: key: +++: inhibition by the 640-fold diluted peptide solution; ++: inhibition by the 160-fold diluted solution; +: inhibition by the 40-fold diluted solution; -: no inhibition. The settings on record: S. pyogenes, bead-derived peptide solution, three concentrations. The method, boiled down: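 Three stock dilutions per peptide (none, 4-fold, 16-fold in DMSO) are screened in 96-well format. The medium is blood-supplemented cation-adjusted MHB, inoculated with 2 × 10^5 CFU S. pyogenes SSI-9. Growth is read as cell precipitation at 18 h, 37 °C.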

Data set [3] can be described thus: H+/Na+ transport assay of bead-derived peptides (one-point).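 Further: relative to parent gramicidin A activity set to 1.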 The format is biochemical. The arrangement: key: relative activity; mean of two control wells = 1.00. The settings on record: bead-derived peptide solution, EYPC/EYPG LUVs. The method in brief: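 H+/Na+ transport is monitored through pyranine fluorescence in freshly extruded LUVs after a 30-min room-temperature vortex with each library peptide at a single concentration. Signals are normalized to detergent (Triton X-100) and untreated controls.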

By viability is commonly meant the share of living cells, or the viability signal relative to a control. Regarding `CC(C)C[C@@H](NC(=O)[C@H](C)NC(=O)CNC(=O)[C@@H](NC=O)C(C)C)C(=O)N[C@@H](C)C(=O)N[C@@H](C(=O)N[C@H](C(=O)N[C@@H](C(=O)N[C@@H](Cc1c[nH]c2ccccc12)C(=O)N[C@H](CC(C)C)C(=O)N[C@@H](Cc1c[nH]c2ccccc12)C(=O)N[C@H](CC(C)C)C(=O)N[C@@H](Cc1c[nH]c2ccccc12)C(=O)N[C@@H](C(=O)N[C@@H](Cc1c[nH]c2ccccc12)C(=O)NCCO)C(C)C)C(C)C)C(C)C)[C@H](C)O` [compound 13002] (For-VGA[dL]A[dT]V[dV]W[dL]W[dL]W[dV]W-NHCH2CH2OH), in data set [1], the viability turned out to be 98.3%. Also, the antibacterial activity entry in data set [2] was “-”. In data set [3], the “H+/Na+ transport activity normalized against the value of 1 (1.00)” value (shortened to “H+/Na+ transport activity normalized”) turned out to be 1.33.
Regarding `CC(C)C[C@@H](NC(=O)[C@H](Cc1c[nH]c2ccccc12)NC(=O)[C@H](NC(=O)[C@H](Cc1c[nH]c2ccccc12)NC(=O)[C@H](NC(=O)[C@H](Cc1c[nH]c2ccccc12)NC(=O)[C@H](NC(=O)[C@@H](NC(=O)[C@H](NC(=O)[C@H](C)NC(=O)[C@H](NC(=O)[C@H](C)NC(=O)CNC(=O)[C@@H](NC=O)C(C)C)[C@H](C)O)C(C)C)C(C)C)C(C)C)C(C)C)C(C)C)C(=O)N[C@@H](Cc1c[nH]c2ccccc12)C(=O)NCCO` [compound 6606] (For-VGA[dT]A[dV]V[dV]W[dV]W[dV]W[dL]W-NHCH2CH2OH), the viability in data set [1] was 100%. Also, the antibacterial activity result in data set [2] was “-”. For the same compound, in data set [3], the “H+/Na+ transport activity normalized” value was 1.03.
In data set [1], `CC(C)C[C@@H](NC(=O)[C@H](C)NC(=O)CNC(=O)[C@@H](NC=O)C(C)C)C(=O)N[C@@H](C)C(=O)N[C@@H](C(=O)N[C@H](C(=O)N[C@@H](C(=O)N[C@@H](Cc1c[nH]c2ccccc12)C(=O)N[C@@H](C(=O)N[C@@H](Cc1c[nH]c2ccccc12)C(=O)N[C@@H](C(=O)N[C@@H](Cc1c[nH]c2ccccc12)C(=O)N[C@@H](C(=O)N[C@@H](Cc1c[nH]c2ccccc12)C(=O)NCCO)[C@H](C)O)C(C)C)C(C)C)C(C)C)C(C)C)C(C)C` [compound 762] (For-VGA[dL]A[dV]V[dV]W[dV]W[dV]W[dT]W-NHCH2CH2OH) gave a viability of 96.8%. In data set [2], the antibacterial activity result was “-”. The “H+/Na+ transport activity normalized” value in data set [3] stood at 1.01.
For `CC(C)C[C@@H](NC(=O)[C@H](C)NC(=O)[C@H](NC(=O)[C@H](C)NC(=O)CNC(=O)[C@@H](NC=O)C(C)C)C(C)C)C(=O)N[C@H](C(=O)N[C@@H](C(=O)N[C@@H](Cc1c[nH]c2ccccc12)C(=O)N[C@H](CC(C)C)C(=O)N[C@@H](Cc1c[nH]c2ccccc12)C(=O)N[C@@H](C(=O)N[C@@H](Cc1c[nH]c2ccccc12)C(=O)N[C@H](CC(C)C)C(=O)N[C@@H](Cc1c[nH]c2ccccc12)C(=O)NCCO)[C@H](C)O)[C@H](C)O)C(C)C` [compound 4195] (For-VGA[dV]A[dL]V[dT]W[dL]W[dT]W[dL]W-NHCH2CH2OH), in data set [1], the viability was 90.6%. The antibacterial activity entry in data set [2] was “-”. In addition, in data set [3], the “H+/Na+ transport activity normalized” value is 1.19.
As for `CC(C)C[C@@H](NC(=O)[C@H](C)NC(=O)[C@H](NC(=O)[C@H](C)NC(=O)CNC(=O)[C@@H](NC=O)C(C)C)C(C)C)C(=O)N[C@H](C(=O)N[C@H](CC(C)C)C(=O)N[C@@H](Cc1c[nH]c2ccccc12)C(=O)N[C@@H](C(=O)N[C@@H](Cc1c[nH]c2ccccc12)C(=O)N[C@@H](C(=O)N[C@@H](Cc1c[nH]c2ccccc12)C(=O)N[C@@H](C(=O)N[C@@H](Cc1c[nH]c2ccccc12)C(=O)NCCO)C(C)C)C(C)C)[C@H](C)O)C(C)C` [compound 8554] (For-VGA[dV]A[dL]V[dL]W[dT]W[dV]W[dV]W-NHCH2CH2OH), the viability in data set [1] was determined as 61.3%. For the same compound, the antibacterial activity result in data set [2] is reported as “-”. In addition, in data set [3], the “H+/Na+ transport activity normalized” value is 1.03.
For `CC(C)C[C@@H](NC(=O)[C@H](C)NC(=O)[C@H](NC(=O)[C@H](C)NC(=O)CNC(=O)[C@@H](NC=O)C(C)C)C(C)C)C(=O)N[C@H](C(=O)N[C@H](CC(C)C)C(=O)N[C@@H](Cc1c[nH]c2ccccc12)C(=O)N[C@@H](C(=O)N[C@@H](Cc1c[nH]c2ccccc12)C(=O)N[C@H](CC(C)C)C(=O)N[C@@H](Cc1c[nH]c2ccccc12)C(=O)N[C@@H](C(=O)N[C@@H](Cc1c[nH]c2ccccc12)C(=O)NCCO)C(C)C)[C@H](C)O)C(C)C` [compound 3260] (For-VGA[dV]A[dL]V[dL]W[dT]W[dL]W[dV]W-NHCH2CH2OH) the same measures were 100%, “+” and 1.10.
In the case of `CNC(=O)C[C@@H](NC(=O)[C@@H](NC(=O)[C@@H](CC(C)C)NC(=O)[C@H](C)NC(=O)[C@@H](CC(C)C)NC(=O)[C@H](C)NC(=O)CNC(=O)[C@@H](NC=O)C(C)C)C(C)C)C(=O)N[C@@H](Cc1c[nH]c2ccccc12)C(=O)N[C@@H](C(=O)N[C@@H](Cc1c[nH]c2ccccc12)C(=O)N[C@@H](C(=O)N[C@@H](Cc1c[nH]c2ccccc12)C(=O)N[C@@H](C(=O)N[C@@H](Cc1c[nH]c2ccccc12)C(=O)NCCO)C(C)C)C(C)C)C(C)C` [compound 3931] (For-VGA[dL]A[dL]V[dD](NHMe)W[dV]W[dV]W[dV]W-NHCH2CH2OH), the viability in data set [1] was found to be 100%. Also, the antibacterial activity entry in data set [2] is listed as “-”. In addition, the “H+/Na+ transport activity normalized” value in data set [3] worked out at 1.16.
`CNC(=O)C[C@@H](NC(=O)[C@@H](NC(=O)[C@@H](CC(C)C)NC(=O)[C@H](C)NC(=O)[C@H](NC(=O)[C@H](C)NC(=O)CNC(=O)[C@@H](NC=O)C(C)C)C(C)C)C(C)C)C(=O)N[C@@H](Cc1c[nH]c2ccccc12)C(=O)N[C@H](CC(C)C)C(=O)N[C@@H](Cc1c[nH]c2ccccc12)C(=O)N[C@@H](C(=O)N[C@@H](Cc1c[nH]c2ccccc12)C(=O)N[C@H](CC(C)C)C(=O)N[C@@H](Cc1c[nH]c2ccccc12)C(=O)NCCO)C(C)C` [compound 6541] (For-VGA[dV]A[dL]V[dD](NHMe)W[dL]W[dV]W[dL]W-NHCH2CH2OH): the viability in data set [1] came to 100%. Further, the antibacterial activity result in data set [2] is recorded as “-”. The “H+/Na+ transport activity normalized” value in data set [3] worked out at 1.14.
On to `CC(C)C[C@@H](NC(=O)[C@H](C)NC(=O)[C@H](NC(=O)[C@H](C)NC(=O)CNC(=O)[C@@H](NC=O)C(C)C)C(C)C)C(=O)N[C@H](C(=O)N[C@@H](C(=O)N[C@@H](Cc1c[nH]c2ccccc12)C(=O)N[C@H](CC(C)C)C(=O)N[C@@H](Cc1c[nH]c2ccccc12)C(=O)N[C@H](CC(C)C)C(=O)N[C@@H](Cc1c[nH]c2ccccc12)C(=O)N[C@@H](C(=O)N[C@@H](Cc1c[nH]c2ccccc12)C(=O)NCCO)C(C)C)[C@H](C)O)C(C)C` [compound 6160] (For-VGA[dV]A[dL]V[dT]W[dL]W[dL]W[dV]W-NHCH2CH2OH), for which the viability in data set [1] was determined as 70.3%. In data set [2], the antibacterial activity entry is “+”. Moreover, in data set [3], the “H+/Na+ transport activity normalized” value stood at 1.07.
Consider `CC(C)C[C@@H](NC(=O)[C@H](C)NC(=O)CNC(=O)[C@@H](NC=O)C(C)C)C(=O)N[C@@H](C)C(=O)N[C@@H](C(=O)N[C@H](C(=O)N[C@@H](C(=O)N[C@@H](Cc1c[nH]c2ccccc12)C(=O)N[C@H](CC(C)C)C(=O)N[C@@H](Cc1c[nH]c2ccccc12)C(=O)N[C@@H](C(=O)N[C@@H](Cc1c[nH]c2ccccc12)C(=O)N[C@@H](C(=O)N[C@@H](Cc1c[nH]c2ccccc12)C(=O)NCCO)C(C)C)C(C)C)[C@H](C)O)C(C)C)C(C)C` [compound 10400] (For-VGA[dL]A[dV]V[dT]W[dL]W[dV]W[dV]W-NHCH2CH2OH), for which the viability in data set [1] was found to be 100%. Besides, the antibacterial activity entry in data set [2] is “-”. In data set [3], the “H+/Na+ transport activity normalized” value was found to be 1.04.
On to `CC(C)C[C@@H](NC(=O)[C@H](C)NC(=O)CNC(=O)[C@@H](NC=O)C(C)C)C(=O)N[C@@H](C)C(=O)N[C@@H](C(=O)N[C@H](C(=O)N[C@H](CC(C)C)C(=O)N[C@@H](Cc1c[nH]c2ccccc12)C(=O)N[C@@H](C(=O)N[C@@H](Cc1c[nH]c2ccccc12)C(=O)N[C@H](CC(C)C)C(=O)N[C@@H](Cc1c[nH]c2ccccc12)C(=O)N[C@@H](C(=O)N[C@@H](Cc1c[nH]c2ccccc12)C(=O)NCCO)[C@H](C)O)[C@H](C)O)C(C)C)C(C)C` [compound 4868] (For-VGA[dL]A[dV]V[dL]W[dT]W[dL]W[dT]W-NHCH2CH2OH), for which the viability in data set [1] is 100%. Also, the antibacterial activity entry in data set [2] was “-”. The “H+/Na+ transport activity normalized” value in data set [3] is 1.06.
Consider `CC(C)C[C@@H](NC(=O)[C@H](C)NC(=O)[C@H](NC(=O)[C@H](C)NC(=O)CNC(=O)[C@@H](NC=O)C(C)C)[C@H](C)O)C(=O)N[C@H](C(=O)N[C@@H](C(=O)N[C@@H](Cc1c[nH]c2ccccc12)C(=O)N[C@H](CC(C)C)C(=O)N[C@@H](Cc1c[nH]c2ccccc12)C(=O)N[C@@H](C(=O)N[C@@H](Cc1c[nH]c2ccccc12)C(=O)N[C@H](CC(C)C)C(=O)N[C@@H](Cc1c[nH]c2ccccc12)C(=O)NCCO)C(C)C)C(C)C)C(C)C` [compound 10313] (For-VGA[dT]A[dL]V[dV]W[dL]W[dV]W[dL]W-NHCH2CH2OH), for which the viability in data set [1] was 100%. Besides, the antibacterial activity result in data set [2] is on record as “-”. The “H+/Na+ transport activity normalized” value in data set [3] was determined as 1.11.
